Laboratory results published in paper PMC5736709, “Unravelling the specificity and mechanism of sialic acid recognition by the gut symbiont Ruminococcus gnavus” (Nature Communications, 2017).
“And” between values parts separate entries of the source, which are not always exact repeats. Identical values can stand only once. “Also recorded” adds a separate entry of the source.

Key:
RgCBM40 Y116A = biological target: T1, RgCBM40 Y116A (Mediterraneibacter gnavus (Ruminococcus gnavus), UniProt A7B557, Y116A); test: ITC of sialoglycans binding to RgCBM40 mutant Y116A; set-up: species or system Ruminococcus gnavus ATCC 29149
T1 sequence (A7B557 50-237 Y116A): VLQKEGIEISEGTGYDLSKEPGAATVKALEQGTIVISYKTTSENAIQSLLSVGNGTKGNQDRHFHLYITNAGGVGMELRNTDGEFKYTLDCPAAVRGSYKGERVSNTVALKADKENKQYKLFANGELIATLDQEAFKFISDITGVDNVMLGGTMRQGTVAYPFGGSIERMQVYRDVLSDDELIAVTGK
Experimental: (§1) Site directed mutagenesis of RgGH33 to introduce the D282A mutation in the active site was carried out using the QuikChange kit, following the manufacturer’s instructions, Agilent (Santa Clara, CA, USA). Site-directed mutants of RgCBM40; I95A, Y116A, E126A, R128A, R204A and double mutant R128A/R204A, were obtained from NZyTech (Lisbon, Portugal). The primers are listed in Supplementary Table 4. The integrity of the RgGH33 and RgCBM40 mutants was checked by circular dichroism (CD).
(§2) Isothermal titration calorimetry (ITC) experiments were performed using the PEAQ-ITC system (Malvern, Malvern, UK) with a cell volume of 200 µl. Prior to titration protein samples were exhaustively dialysed into PBS. The ligand was dissolved in the dialysis buffer. The cell protein concentration was 115 µM (except for mutant I95A where it was 173 µM and the wild-type interaction with 6′SL where it was 230 µM) and the syringe ligand concentration was 10 mM (25 mM for Neu5Ac). Controls with titrant (sugar) injected into buffer only were subtracted from the data. Analysis was performed using Malvern software, using a single-binding site model. The stoichiometry of binding sites was set to 1.0 as this was evident from the crystal structure. Quantitative and most qualitative experiments were carried out in triplicate.

RgCBM40 Y210A = biological target: T2, RgCBM40 Y210A (Mediterraneibacter gnavus (Ruminococcus gnavus), UniProt A7B557, Y210A); test: ITC of sialoglycans binding to RgCBM40 mutant Y210A; set-up: species or system Ruminococcus gnavus ATCC 29149
T2 sequence (A7B557 50-237 Y210A): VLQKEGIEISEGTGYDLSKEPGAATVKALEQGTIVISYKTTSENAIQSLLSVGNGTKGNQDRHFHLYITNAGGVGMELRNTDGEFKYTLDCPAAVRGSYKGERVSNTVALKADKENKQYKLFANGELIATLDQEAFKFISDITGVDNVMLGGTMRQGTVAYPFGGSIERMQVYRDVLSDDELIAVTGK
Experimental: as §2

RgCBM40 R204A = biological target: T3, RgCBM40 R204A (Mediterraneibacter gnavus (Ruminococcus gnavus), UniProt A7B557, R204A); test: ITC of sialoglycans binding to RgCBM40 mutant R204A; set-up: species or system Ruminococcus gnavus ATCC 29149
T3 sequence (A7B557 50-237 R204A): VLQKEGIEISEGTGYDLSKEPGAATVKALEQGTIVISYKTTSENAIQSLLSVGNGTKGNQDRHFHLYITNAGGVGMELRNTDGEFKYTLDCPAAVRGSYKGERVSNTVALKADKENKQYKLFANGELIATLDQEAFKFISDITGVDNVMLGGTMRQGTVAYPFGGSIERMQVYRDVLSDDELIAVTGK
Experimental: as §1, §2

RgCBM40 R128A = biological target: T4, RgCBM40 R128A (Mediterraneibacter gnavus (Ruminococcus gnavus), UniProt A7B557, R128A); test: ITC of sialoglycans binding to RgCBM40 mutant R128A; set-up: species or system Ruminococcus gnavus ATCC 29149
T4 sequence (A7B557 50-237 R128A): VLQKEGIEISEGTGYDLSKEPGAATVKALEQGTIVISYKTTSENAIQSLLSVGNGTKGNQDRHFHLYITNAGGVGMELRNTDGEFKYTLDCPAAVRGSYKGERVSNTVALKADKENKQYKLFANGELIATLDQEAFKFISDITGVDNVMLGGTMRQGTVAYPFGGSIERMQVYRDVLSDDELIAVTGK
Experimental: as §1, §2

RgCBM40 I95A = biological target: T5, RgCBM40 I95A (Mediterraneibacter gnavus (Ruminococcus gnavus), UniProt A7B557, I95A); test: ITC of sialoglycans binding to RgCBM40 mutant I95A; set-up: species or system Ruminococcus gnavus ATCC 29149; details: 173 µM protein, syringe 10 mM sugar (25 mM for Neu5Ac), * = estimate only
T5 sequence (A7B557 50-237 I95A): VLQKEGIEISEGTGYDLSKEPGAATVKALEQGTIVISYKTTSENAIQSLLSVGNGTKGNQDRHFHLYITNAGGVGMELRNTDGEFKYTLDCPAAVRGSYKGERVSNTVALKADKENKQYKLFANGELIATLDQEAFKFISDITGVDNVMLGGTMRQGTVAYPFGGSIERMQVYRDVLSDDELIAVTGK
Experimental: as §1, §2

RgCBM40 [1] = biological target: T6, RgCBM40 (Mediterraneibacter gnavus (Ruminococcus gnavus), UniProt A7B557); test: ITC of sialoglycans binding to RgCBM40 wild type; set-up: species or system Ruminococcus gnavus ATCC 29149; details: RgCBM40 WT
Experimental: as §2

RgCBM40 R128A/R204A = biological target: T7, RgCBM40 R128A/R204A (Mediterraneibacter gnavus (Ruminococcus gnavus), UniProt A7B557, R128A/R204A); test: ITC of sialoglycans binding to RgCBM40 double mutant R128A/R204A; set-up: species or system Ruminococcus gnavus ATCC 29149
T7 sequence (A7B557 50-237 R128A/R204A): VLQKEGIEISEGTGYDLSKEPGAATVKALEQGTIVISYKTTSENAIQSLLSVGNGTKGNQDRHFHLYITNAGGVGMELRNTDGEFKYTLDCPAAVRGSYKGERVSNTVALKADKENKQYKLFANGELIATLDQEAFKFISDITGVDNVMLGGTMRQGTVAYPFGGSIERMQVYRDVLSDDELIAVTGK
Experimental: as §1, §2

[2] = test system: RgCBM40 binding to LS174T MUC2; test: ELISA of RgCBM40 binding to LS174T MUC2 in competition with sugars; set-up: species or system Ruminococcus gnavus ATCC 29149; details: RgCBM40 preincubated with 1 mM free sugar overnight at 4 °C; immobilised LS174T MUC2; A450
Experimental: RgCBM40 binding to purified mucins was tested by ELISA. Mucins (100 μl of 10 μg ml^−1) were immobilised onto a high binding 96 well plate (Greiner, Stonehouse, UK) overnight at 4 °C. All subsequent steps were carried out for 1 h at room temperature. The plates were blocked with 3% (w/v) BSA, incubated with RgCBM40 (500 μg ml^−1), followed by an incubation with 1:5000 anti-RgNanH (raised in rabbit, Biogenes) then with 1:5000 anti-rabbit secondary antibody (raised in donkey) conjugated to peroxidase (GE Healthcare). Between each step, the plate was washed with 3 × 300 μl of PBS containing 0.05% (v/v) Tween 20 (PBST). Prior to detection, an additional wash step and 30 s incubation with PBST was carried out. Binding was detected using tetramethylbenzidine (TMB) visualisation solution (Biolegend, San Diego, CA, USA) which was incubated for 15 min. The reaction was stopped by addition of 2 M H2SO4 and absorbance measured at 450 nm using a plate-reader (Bench Marl Plus, Biorad), subtracting background readings at 570 nm. Negative controls including no RgCBM40 (subtracted from A450 value), no primary or no secondary antibody were carried out in parallel. For comparison between plates, values were normalised to the reading for LS174T MUC2 which was arbitrarily set at 100%. For enzymatic treatment of the mucin, LS174T MUC2 (2 mg ml^−1) was incubated with sialidases (2 µg ml^−1) overnight at 4 °C on a rotary wheel prior to immobilisation on the plate. For chemical treatment of mucin, LS174T MUC2 was incubated with 0.1 M trifluoroacetic acid (TFA) at 80 °C for 1 h, dialysed against ammonium bicarbonate (50 mM), lyophilised and redissolved in H2O. For the competition assays, RgCBM40 was incubated with 1 mM of free sugar overnight at 4 °C on a rotary wheel prior to addition to the ELISA plate as above. Experiments were carried out in triplicate.

RgCBM40 E126A = biological target: T8, RgCBM40 E126A (Mediterraneibacter gnavus (Ruminococcus gnavus), UniProt A7B557, E126A); test: ITC of sialoglycans binding to RgCBM40 mutant E126A; set-up: species or system Ruminococcus gnavus ATCC 29149
T8 sequence (A7B557 50-237 E126A): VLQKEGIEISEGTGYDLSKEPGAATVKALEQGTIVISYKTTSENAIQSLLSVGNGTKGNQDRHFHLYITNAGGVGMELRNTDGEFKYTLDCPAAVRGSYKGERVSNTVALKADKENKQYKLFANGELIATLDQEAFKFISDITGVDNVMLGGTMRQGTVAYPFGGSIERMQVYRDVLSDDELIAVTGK
Experimental: as §1, §2

RgCBM40 [3] = biological target: T6, RgCBM40; test: STD NMR of sialoglycans with RgCBM40 WT; set-up: species or system Ruminococcus gnavus ATCC 29149; details: 1 mM sialoglycan, 50 μM RgCBM40 WT, 288 K; 'exception' = monosaccharides for which binding was not detected
Experimental: ^1H and ^13C resonance assignment for all the sugars was performed on the bases of 1D ^1H, 2D DQF-COSY, TOCSY, HSQC and NOESY experiments run on the free ligands in unbuffered D2O, pH 7.0. For STD NMR experiments, all the samples consisted of 1 mM sialoglycans and 50 μM RgCBM40 (WT or I95A mutant) in D2O buffer solution of 10 mM Tris-d11 pH 7.8 and 100 mM NaCl (ligand: protein ratio 20:1). An STD pulse sequence that included 2.5 ms and 5 ms trim pulses and a 3 ms spoil gradient was used. Saturation was achieved applying a train of 50 ms Gaussian pulses (0.40 mW) on the f2 channel, at 0.60 p.p.m. (on-resonance experiments) and 40 p.p.m. (off-resonance experiments). The broad protein signals were removed using a 40 ms spinlock (T1ρ) filter. All the experiments were recorded at ^1H frequency of 800.23 MHz on a Bruker Avance III spectrometer equipped with a 5 mm probe TXI 800 MHz H-C/N-D-05 Z BTO, at 288 K. For all the sialoglycans in the presence of RgCBM40, an STD experiment with a saturation time of 2 s and a relaxation delay of 5 s was performed, as a first test for binding. For the confirmed binders, the STD NMR experiments were carried out at different saturation times (0.5, 1, 2, 3, 4 and 5 s) with 1 K scans and relaxation delay of 5 s, in order to obtain the binding epitope mapping. The resulting build-up curves for each proton were fitted mathematically to a mono-exponential equation (y = a×[1-exp(b×x)]), from which the initial slopes (a×b) were obtained. For each ligand, the binding epitope mapping was obtained by dividing the initial slopes by the one of the H7 proton of the corresponding sialic acid ring, to which an arbitrary value of 100% was assigned. This normalisation of the STD values allows the comparison across all the sialoglycans.

[4] = biological target: T9, LS174T MUC2 treated with trifluoroacetic acid or a sialidase to remove sialic acid (human (endogenous in LS174T), UniProt Q02817 21-5289, O-glycans with sialic acid removed by TFA or by a sialidase from C. perfringens, S. typhimurium, A. muciniphila or R. gnavus; reduced with dithiothreitol and alkylated with iodoacetamide); test: ELISA; mucins (100 µl of 10 µg ml^-1) immobilised on a 96 well plate, RgCBM40 at 500 µg ml^-1 for 1 h at room temperature, detected with rabbit anti-RgNanH and a peroxidase-conjugated secondary antibody, A450; values normalised to LS174T MUC2 = 100%; details: both partners purified
T9 construct: MUC2, gel-forming mucin secreted by the human LS174T cell line; also called MUC2 treated chemically (TFA) or enzymatically with a sialidase (Cp, St, Am/Ak, Rg)

Molecule | Binding by ITC (in words) (RgCBM40 Y116A) | Kd (RgCBM40 Y116A; ITC) | Binding by ITC (in words) (RgCBM40 Y210A) | Kd (RgCBM40 Y210A; ITC) | Binding by ITC (in words) (RgCBM40 R204A) | Kd (RgCBM40 R204A; ITC) | Binding by ITC (in words) (RgCBM40 R128A) | Kd (RgCBM40 R128A; ITC) | Kd (RgCBM40 I95A) | Kd (RgCBM40 [1]; Kd, ITC in PBS, 115-230 μM protein in cell, syringe 10 mM sugar (25 mM for Neu5Ac), * = estimate only, Kd too high to determine) | Binding to RgCBM40 (in words) (RgCBM40 [1]) | Binding by ITC (in words) (RgCBM40 R128A/R204A) | Kd (RgCBM40 R128A/R204A; ITC) | Effect of free sugar on adherence of RgCBM40 to MUC2 [2] | Binding by ITC (in words) (RgCBM40 E126A) | Kd (RgCBM40 E126A; ITC) | Binding to RgCBM40 detected by STD NMR (RgCBM40 [3]) | binding result [4]
CC(=O)N[C@H]1[C@H]([C@H](O)[C@H](O)CO)OC(O)(C(=O)O)C[C@@H]1O (stereo partly drawn) [Neu5Ac, N-acetylneuraminic acid] | abolished | > 25 mM | abolished | > 25 mM | abolished | > 25 mM | abolished | > 25 mM | ~23 mM | ~21 mM and ~20 mM | weak binding | abolished | > 25 mM | no effect | abolished | > 25 mM | exception; also recorded: no interaction was observed | –
RgCBM40 (residues 50–237 of RgNanH), preparation for all other protein assays (ELISA) (domain or fragment, Ruminococcus gnavus ATCC 29149, UniProt A7B557 50-237, looked up, in the ELISA it was detected with anti-RgNanH antiserum) VLQKEGIEISEGTGYDLSKEPGAATVKALEQGTIVISYKTTSENAIQSLLSVGNGTKGNQDRHFHLYITNAGGVGMELRNTDGEFKYTLDCPAAVRGSYKGERVSNTVALKADKENKQYKLFANGELIATLDQEAFKFISDITGVDNVMLGGTMRQGTVAYPFGGSIERMQVYRDVLSDDELIAVTGK | – | – | – | – | – | – | – | – | – | – | – | – | – | – | – | – | – | binds
